ChEMBL document CHEMBL1201862, “PubChem BioAssay data set” (2004)
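Five concentrations, 48 hours, 96-well plates. Abbreviation: GI50, concentration required for 50% inhibition of growth.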 The source made the active and inactive calls. No stated cut-off is given here; in the data, active = GI50 up to about 1.1 µM and inactive = higher.

Experiments:
Test in all cases: NCI anticancer screen, dose series, 48 h
HCC 2998 = system: HCC 2998
M14 = system: M14
UO-31 = system: UO-31
SF-268 = system: SF-268
UACC-62 = system: UACC-62
DMS-114 = system: DMS-114
HT-29 = system: HT-29
SK-MEL-2 = system: SK-MEL-2
OVCAR-5 = system: OVCAR-5
SK-MEL-5 = system: SK-MEL-5
A498 = system: A498
MOLT-4 = system: MOLT-4
SF-295 = system: SF-295
HOP-92 = system: HOP-92
TK-10 = system: TK-10
RXF 393 = system: RXF 393
SNB-75 = system: SNB-75

Measured: GI50

COC(=O)C(Cc1nc2ccccc2nc1O)/C(=N\NC(C)(C)C)C(=O)Nc1c(C)cc(Br)cc1C (stereo unspecified)
inactive: HCC 2998 73.1 µM | M14 21.8 µM | UO-31 50.4 µM | SF-268 22.3 µM | UACC-62 19 µM | DMS-114 24.7 µM | HT-29 30.5 µM | SK-MEL-2 31 µM | OVCAR-5 > 100 µM | SK-MEL-5 18.3 µM | A498 12.7 µM | MOLT-4 1.5 µM | SF-295 35.3 µM | HOP-92 18.7 µM

COc1ccc(-c2cc(O)c3cc4c(cc3n2)OCO4)cc1
inactive: TK-10 > 100 µM | HCC 2998 > 100 µM | M14 > 100 µM | UO-31 > 100 µM | RXF 393 38.4 µM | SF-268 > 100 µM | UACC-62 > 100 µM | DMS-114 > 100 µM | SNB-75 29.8 µM | HT-29 > 100 µM | SK-MEL-2 > 100 µM | SK-MEL-5 > 100 µM | A498 > 100 µM | MOLT-4 > 100 µM | SF-295 63.4 µM

CC1OC(n2cc(F)c(=O)[nH]c2=O)C=CC1=O (stereo unspecified)
inactive: TK-10 17 µM | HCC 2998 17.8 µM | M14 17.5 µM | UO-31 16.1 µM | RXF 393 15.5 µM | SF-268 19.6 µM | UACC-62 17.7 µM | DMS-114 18 µM | SNB-75 17.9 µM | HT-29 23 µM | SK-MEL-2 15.1 µM | OVCAR-5 16 µM | SK-MEL-5 17.4 µM | A498 16.7 µM | MOLT-4 24.2 µM | SF-295 17.3 µM | HOP-92 17.7 µM

CSC1NC=Nc2c1sc(=S)n2-c1ccccc1 (stereo unspecified)
inactive: TK-10 > 100 µM | HCC 2998 > 100 µM | M14 > 100 µM | UO-31 > 100 µM | RXF 393 > 100 µM | SF-268 > 100 µM | UACC-62 > 100 µM | DMS-114 > 100 µM | SNB-75 28.4 µM | HT-29 > 100 µM | SK-MEL-2 > 100 µM | OVCAR-5 > 100 µM | SK-MEL-5 > 100 µM | A498 > 100 µM | MOLT-4 > 100 µM | SF-295 > 100 µM | HOP-92 83.8 µM

Nc1nc(N)c(CCCCc2ccccc2)c(C=O)n1
inactive: TK-10 27.6 µM | HCC 2998 26.5 µM | M14 16.4 µM | UO-31 19.1 µM | SF-268 18.8 µM | UACC-62 15.2 µM | DMS-114 15.9 µM | SNB-75 12.7 µM | HT-29 9.62 µM | SK-MEL-2 20 µM | OVCAR-5 > 100 µM | SK-MEL-5 17 µM | A498 > 100 µM | SF-295 22 µM

CC1(C2CCC3(C)C(C2)C3Sc2ccccc2)OCCO1 (stereo unspecified)
inactive: TK-10 56.6 µM | HCC 2998 20.1 µM | M14 37 µM | UO-31 12.6 µM | RXF 393 15 µM | SF-268 34.8 µM | UACC-62 19.4 µM | DMS-114 21.8 µM | SNB-75 54.6 µM | HT-29 17.5 µM | SK-MEL-2 16.8 µM | OVCAR-5 20.5 µM | SK-MEL-5 17.3 µM | A498 18.8 µM | MOLT-4 18 µM | SF-295 21.5 µM | HOP-92 23.3 µM

CC1CC2OC(=O)CC2C[C@@H]1O[Si](C)(C)C(C)(C)C (stereo partly specified)
inactive: TK-10 > 100 µM | HCC 2998 43.3 µM | M14 94.6 µM | UO-31 57.7 µM | SF-268 64.4 µM | UACC-62 68.7 µM | DMS-114 28 µM | SNB-75 51.4 µM | HT-29 40.5 µM | SK-MEL-2 83.4 µM | OVCAR-5 > 100 µM | SK-MEL-5 27 µM | A498 > 10 µM | MOLT-4 21.5 µM | SF-295 58.7 µM | HOP-92 3.68 µM

NC1=NC(c2ccccc2)CC(c2cc(Cl)ccc2O)=N1 (stereo unspecified)
inactive: TK-10 25.1 µM | HCC 2998 15.9 µM | M14 16.9 µM | UO-31 15.2 µM | RXF 393 17.3 µM | SF-268 16 µM | UACC-62 15.8 µM | DMS-114 12.7 µM | SNB-75 17.7 µM | HT-29 17.5 µM | OVCAR-5 19.9 µM | A498 20.1 µM | MOLT-4 14.2 µM | SF-295 17.3 µM | HOP-92 19.1 µM

CCOC(=O)[C@H](Cc1ccccc1)NC(=O)c1nc[nH]c1[N+](=O)[O-]
inactive: TK-10 > 100 µM | HCC 2998 > 100 µM | M14 > 100 µM | UO-31 > 100 µM | SF-268 > 100 µM | UACC-62 > 100 µM | DMS-114 > 100 µM | SNB-75 > 100 µM | HT-29 > 100 µM | SK-MEL-2 > 100 µM | SK-MEL-5 > 100 µM | A498 > 100 µM | MOLT-4 > 100 µM | SF-295 > 100 µM

C=CC1[C@H]2COC(C)(C)O[C@@H]2CC(=O)C1(C)C (stereo partly specified)
inactive: TK-10 > 100 µM | HCC 2998 > 100 µM | M14 > 100 µM | UO-31 > 100 µM | RXF 393 94.8 µM | SF-268 > 100 µM | DMS-114 > 100 µM | SNB-75 > 100 µM | HT-29 > 100 µM | SK-MEL-2 > 100 µM | OVCAR-5 > 100 µM | SF-295 > 100 µM | HOP-92 > 100 µM

CCNC(=O)OCc1c(COC(=O)NCC)c(-c2ccc(Cl)c(Cl)c2)n2c1CCC2
inactive: TK-10 10.9 µM | HCC 2998 14.3 µM | M14 11.1 µM | UO-31 5.22 µM | SF-268 6.55 µM | UACC-62 5.92 µM | DMS-114 9.02 µM | SNB-75 11.1 µM | HT-29 18.3 µM | SK-MEL-2 13.1 µM | OVCAR-5 20.3 µM | SK-MEL-5 14.9 µM | MOLT-4 5.06 µM | SF-295 11.7 µM | HOP-92 5.5 µM

COc1ccc(/C=C2\Cc3ccccc3C2=O)cc1OC
inactive: TK-10 > 100 µM | HCC 2998 > 100 µM | M14 > 100 µM | UO-31 39.7 µM | SF-268 45.3 µM | UACC-62 > 100 µM | DMS-114 48.6 µM | SNB-75 > 10 µM | HT-29 > 100 µM | SK-MEL-2 > 100 µM | OVCAR-5 > 100 µM | SK-MEL-5 63.4 µM | A498 > 100 µM | MOLT-4 > 100 µM | SF-295 60.8 µM

CCOC(=O)CP(=S)(S)c1ccccc1 (stereo unspecified)
inactive: TK-10 > 100 µM | UO-31 > 100 µM | RXF 393 > 100 µM | SF-268 > 100 µM | UACC-62 > 100 µM | DMS-114 > 100 µM | HT-29 > 100 µM | SK-MEL-2 > 100 µM | OVCAR-5 > 100 µM | SK-MEL-5 > 100 µM | A498 > 100 µM | MOLT-4 > 100 µM | SF-295 > 10 µM | HOP-92 > 100 µM
